Source: US20170121344A1 (Siga Technologies, Inc., priority 2009, published 2017)
Read-outs that look alike come from different tables or passages of the source.

Experiments:
DENV-4 = test: Viral yield assay against DENV-4 in Vero cells; type: cell-based; details: Dengue virus
Protocol: (§1) Compounds that were active in the primary screen were tested for activity in viral yield assays. […] Vero cells in 12-well plates were infected with dengue-2 virus at a multiplicity of infection (MOI) of 0.1, treated with compound (or DMSO as a control), incubated at 37° C., harvested 48 hours post infection and titered on Vero cells as described above. The EC50 was calculated through ExcelFit. Activities against other serotypes of dengue virus were determined in a similar way.

DENV-1 = test: Viral yield assay against DENV-1 in Vero cells; type: cell-based; details: Dengue virus
Protocol: as §1

[1] = system: Dengue-2 (Strain New Guinea C); test: Viral yield assay against Dengue-2 in Vero cells; type: cell-based, Dengue virus; details: Dengue virus, read-out: Activity (EC50 in μM) DENV-2
Procedure, shortened: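 Yield reduction, Vero; MOI 0.1; compound vs DMSO; 37° C; harvest 48 h p.i.; titer on Vero; EC50 fitted. Other serotypes run the same way.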

DENV-3 = test: Viral yield assay against DENV-3 in Vero cells; type: cell-based; details: Dengue virus
Protocol: as §1

[2] = DENV2, viral yield assay, Vero cells, MOI 0.1, 48 hours post infection

For `Cc1ccc2c(N)c(C(=O)Nc3nnc(-c4ccccc4)s3)sc2n1` [Compound 284, 3-amino-6-methyl-N-(5-phenyl-1,3,4-thiadiazol-2-yl)thieno[2,3-b]pyridine-2-carboxamide], the EC50 (DENV-4; DENV4, viral yield assay) was > 25 µM, the EC50 (DENV-1; DENV1, viral yield assay) was < 5 µM and the EC50 [1, 2] was < 5 µM. The EC50 (DENV-3; DENV3, viral yield assay) was 5 to 25 µM.

With `O=C(Nc1c(C(=O)Nc2nnc(-c3ccccc3)s2)sc2nc3c(cc12)CCCCC3)c1ccccc1` [Compound 285, 3-benzamido-N-(5-phenyl-1,3,4-thiadiazol-2-yl)-6,7,8,9-tetrahydro-5H-cyclohepta[b]thieno[3,2-e]pyridine-2-carboxamide] the EC50 (DENV-4; DENV4) was < 5 µM, the EC50 (DENV-1; DENV1) was < 5 µM and the EC50 ([1]; DENV2, Vero cells) was < 5 µM. The EC50 (DENV-3; DENV3) was < 5 µM.

`Cc1ccnc2sc(C(=O)Nc3nnc(-c4ccccc4)s3)c(N)c12` [Compound 288, 3-amino-4-methyl-N-(5-phenyl-1,3,4-thiadiazol-2-yl)thieno[2,3-b]pyridine-2-carboxamide] was tested, and the EC50 (DENV-4; DENV4, viral yield assay) was < 5 µM, the EC50 (DENV-1; DENV1, viral yield assay) was < 5 µM and the EC50 [1, 2] was < 5 µM. The EC50 (DENV-3; DENV3, viral yield assay) was 5 to 25 µM.

For `CCCCNc1c(C(=O)Nc2nnc(-c3ccccc3)s2)sc2nc3c(cc12)CCCCC3` [Compound 289, 3-(butylamino)-N-(5-phenyl-1,3,4-thiadiazol-2-yl)-6,7,8,9-tetrahydro-5H-cyclohepta[b]thieno[3,2-e]pyridine-2-carboxamide], the EC50 (DENV-4; DENV4) was < 5 µM, the EC50 (DENV-1; DENV1) was < 5 µM and the EC50 ([1]; DENV2, Vero cells) was < 5 µM. The EC50 (DENV-3; DENV3) was < 5 µM.

`Nc1c(C(=O)Nc2nnc(-c3ccccc3)s2)sc2nc(Cl)ccc12` [Compound 292] was tested, and the EC50 (DENV-4; DENV4, viral yield assay) was < 5 µM, the EC50 (DENV-1; DENV1, viral yield assay) was < 5 µM and the EC50 [1, 2] was < 5 µM. The EC50 (DENV-3; DENV3, viral yield assay) was < 5 µM.

`O=C(O)CNc1c(C(=O)Nc2nnc(-c3ccccc3)s2)sc2nc3c(cc12)CCCCC3` [Compound 293, 2-((2-((5-phenyl-1,3,4-thiadiazol-2-yl)carbamoyl)-6,7,8,9-tetrahydro-5H-cyclohepta[b]thieno[3,2-e]pyridin-3-yl)amino)acetic acid] was tested, and the EC50 (DENV-4; DENV4) was < 5 µM, the EC50 (DENV-1; DENV1) was < 5 µM and the EC50 ([1]; DENV2, Vero cells) was < 5 µM. For the same compound, the EC50 (DENV-3; DENV3) was < 5 µM.

`NCCNc1c(C(=O)Nc2nnc(-c3ccccc3)s2)sc2nc3c(cc12)CCCCC3` [Compound 294, 3-((2-aminoethyl)amino)-N-(5-phenyl-1,3,4-thiadiazol-2-yl)-6,7,8,9-tetrahydro-5H-cyclohepta[b]thieno[3,2-e]pyridine-2-carboxamide] was tested, and the EC50 (DENV-4; DENV4) was < 5 µM, the EC50 (DENV-1; DENV1) was < 5 µM and the EC50 ([1]; DENV2, Vero cells) was < 5 µM. For the same compound, the EC50 (DENV-3; DENV3) was < 5 µM.

`O=C(O)CC(=O)Nc1c(C(=O)Nc2nnc(-c3ccccc3)s2)sc2nc3c(cc12)CCCCC3` [Compound 295, 3-oxo-3-((2-((5-phenyl-1,3,4-thiadiazol-2-yl)carbamoyl)-6,7,8,9-tetrahydro-5H-cyclohepta[b]thieno[3,2-e]pyridin-3-yl)amino)propanoic acid] was tested, and the EC50 (DENV-4; DENV4) was < 5 µM, the EC50 (DENV-1; DENV1) was < 5 µM and the EC50 ([1]; DENV2, Vero cells) was < 5 µM. For the same compound, the EC50 (DENV-3; DENV3) was < 5 µM.

For `NCC(=O)Nc1c(C(=O)Nc2nnc(-c3ccccc3)s2)sc2nc3c(cc12)CCCCC3` [Compound 296, 3-(2-aminoacetamido)-N-(5-phenyl-1,3,4-thiadiazol-2-yl)-6,7,8,9-tetrahydro-5H-cyclohepta[b]thieno[3,2-e]pyridine-2-carboxamide], the EC50 (DENV-4; DENV4) was < 5 µM, the EC50 (DENV-1; DENV1) was < 5 µM and the EC50 ([1]; DENV2, Vero cells) was < 5 µM. The EC50 (DENV-3; DENV3) was < 5 µM.

With `O=C(Nc1c(C(=O)Nc2nnc(-c3ccccc3)s2)sc2nc3c(cc12)CCCCC3)c1cccnc1` [Compound 297, 3-(nicotinamido)-N-(5-phenyl-1,3,4-thiadiazol-2-yl)-6,7,8,9-tetrahydro-5H-cyclohepta[b]thieno[3,2-e]pyridine-2-carboxamide] the EC50 (DENV-4; DENV4) was < 5 µM, the EC50 (DENV-1; DENV1) was < 5 µM and the EC50 ([1]; DENV2, Vero cells) was < 5 µM. The EC50 (DENV-3; DENV3) was < 5 µM.

For `O=C(Nc1c(C(=O)Nc2nnc(-c3ccccc3)s2)sc2nc3c(cc12)CCCCC3)c1ccncc1` [Compound 298, 3-(isonicotinamido)-N-(5-phenyl-1,3,4-thiadiazol-2-yl)-6,7,8,9-tetrahydro-5H-cyclohepta[b]thieno[3,2-e]pyridine-2-carboxamide], the EC50 (DENV-4; DENV4) was < 5 µM, the EC50 (DENV-1; DENV1) was < 5 µM and the EC50 ([1]; DENV2, Vero cells) was < 5 µM. For the same compound, the EC50 (DENV-3; DENV3) was < 5 µM.

Work on `O=C(O)CNc1c(C(=O)Nc2nnc(-c3ccccc3)s2)sc2nc(Cl)ccc12` [Compound 299, 2-[[6-chloro-2-[(5-phenyl-1,3,4-thiadiazol-2-yl)carbamoyl]thieno[2,3-b]pyridin-3-yl]amino]acetic acid] yielded an EC50 (DENV-4; DENV4) of 5 to 25 µM, an EC50 (DENV-1; DENV1) of 5 to 25 µM and an EC50 ([1]; DENV2, Vero cells) of 5 to 25 µM.

In the case of `NCCNc1c(C(=O)Nc2nnc(-c3ccccc3)s2)sc2nc(Cl)ccc12` [Compound 300, 3-(2-aminoethylamino)-6-chloro-N-(5-phenyl-1,3,4-thiadiazol-2-yl)thieno[2,3-b]pyridine-2-carboxamide], the EC50 (DENV-4; DENV4) is reported as < 5 µM, the EC50 (DENV-1; DENV1) is reported as < 5 µM and the EC50 ([1]; DENV2, Vero cells) is reported as < 5 µM. The EC50 (DENV-3; DENV3) was < 5 µM.

With `CN1CCc2nc3sc(C(=O)Nc4nnc(-c5ccccc5)s4)c(N)c3cc2C1` [Compound 301, 3-amino-6-methyl-N-(5-phenyl-1,3,4-thiadiazol-2-yl)-7,8-dihydro-5H-thieno[2,3-b][1,6]naphthyridine-2-carboxamide] the EC50 (DENV-4; DENV4, viral yield assay) was < 5 µM, the EC50 (DENV-1; DENV1, viral yield assay) was < 5 µM and the EC50 [1, 2] was < 5 µM. For the same compound, the EC50 (DENV-3; DENV3, viral yield assay) was 5 to 25 µM.

`O=C(O)CC(=O)Nc1c(C(=O)Nc2cccc(C(F)(F)F)c2)sc2nc(-c3cccs3)ccc12` [Compound 302, 3-oxo-3-[[6-(2-thienyl)-2-[[3-(trifluoromethyl)phenyl]carbamoyl]thieno[2,3-b]pyridin-3-yl]amino]propanoic acid] was tested, and the EC50 (DENV-4; DENV4) was < 5 µM, the EC50 (DENV-1; DENV1) was < 5 µM and the EC50 ([1]; DENV2, Vero cells) was < 5 µM. The EC50 (DENV-3; DENV3) was 5 to 25 µM.

With `CN1CCc2nc3sc(C(=O)Nc4ccc(OC(F)(F)F)cc4)c(NCC(=O)O)c3cc2C1` [Compound 303, 2-[[6-methyl-2-[[4-(trifluoromethoxy)phenyl]carbamoyl]-7,8-dihydro-5H-thieno[2,3-b][1,6]naphthyridin-3-yl]amino]acetic acid] the EC50 (DENV-4; DENV4) was < 5 µM, the EC50 (DENV-1; DENV1) was 5 to 25 µM and the EC50 ([1]; DENV2, Vero cells) was < 5 µM. The EC50 (DENV-3; DENV3) was 5 to 25 µM.

In the case of `NCCNc1c(C(=O)Nc2cccc(C(F)(F)F)c2)sc2nc(-c3cccs3)ccc12` [Compound 304, 3-(2-aminoethylamino)-6-(2-thienyl)-N-[3-(trifluoromethyl)phenyl]thieno[2,3-b]pyridine-2-carboxamide], the EC50 (DENV-4; DENV4) is reported as < 5 µM, the EC50 (DENV-1; DENV1) is reported as < 5 µM and the EC50 ([1]; DENV2, Vero cells) is reported as < 5 µM. The EC50 (DENV-3; DENV3) was < 5 µM.

With `COc1cccc(-c2ccc3c(N)c(C(=O)Nc4ccc(C)c(Br)c4)sc3n2)c1` [Compound 559, 3-amino-N-(3-bromo-4-methyl-phenyl)-6-(3-methoxyphenyl)thieno[2,3-b] pyridine-2-carboxamide] the EC50 (DENV-4; DENV4, viral yield assay) was < 5 µM, the EC50 [1, 2] was < 5 µM and the EC50 (DENV-3; DENV3, viral yield assay) was < 5 µM.

For `Nc1c(C(=O)Nc2ccc(F)cc2)sc2nc(-c3ccc4c(c3)OCO4)ccc12` [Compound 603, 3-amino-6-(1,3-benzodioxol-5-yl)-N-(4-fluorophenyl)thieno[2,3-b]pyridine-2-carboxamide], the EC50 (DENV-4; DENV4, viral yield assay) was < 5 µM and the EC50 ([1]; DENV2, Vero, 48 h) was < 5 µM.

With `Nc1c(C(=O)Nc2ccc(F)cc2Cl)sc2nc(-c3ccc(F)cc3)ccc12` [Compound 618, 3-amino-N-(2-chloro-4-fluoro-phenyl)-6-(4-fluorophenyl)thieno[2,3-b]pyridine-2-carboxamide] the EC50 (DENV-1; DENV1, viral yield assay) was < 5 µM and the EC50 [1, 2] was < 5 µM.
